According to patent US8476197B2, “Aminopropenoates as fungicides” (priority 2009, dated 2013):
Marks after values point to notes of the source that are not given here.

Conditions: pH 2.7

Row | Log P | Structure (SMILES)
1 | 3.08^[a] | CCOCC(CC)NC(=C(C#N)C(=O)OCC)c1cn(C)nc1C(F)F (stereo not drawn) [Compound 1351]
2 | 3.03^[a] | CCOC(=O)C(C#N)=C(NC(C)c1ccccn1)c1ccsc1I (racemic) [Compound 163]
3 | 4.54^[a] | CCOC(=O)C(C#N)=C(NC(C)c1ccc(C)cc1)c1sccc1C(F)(F)F (mixture of isomers) [Compound 439]
4 | 4.11^[a] | CCOC(=O)C(C#N)=C(Nc1ccc(Cl)cc1)c1sccc1Br [Compound 457]
5 | 3.15^[a] | COC(=O)C(C#N)=C(NCc1nc2ccccc2s1)c1sc(C)nc1C(F)(F)F [Compound 184]
6 | 3.08^[a] | CCNC(=O)C(C#N)=C(NC(C)C(C)C)c1ccnc(C)c1Cl (stereo not drawn) [Compound 1249]
7 | 2.84^[a] | CCOC(=O)C(C#N)=C(NC1CCC1)c1cnn(C)c1C(F)F [Compound 1304]
8 | 1.57^[a] | CCOC(=O)C(C#N)=C(NC(C)C(=O)NC)c1conc1C (stereo not drawn) [Compound 629]
9 | 3.89^[a] | CCOC(=O)C(C#N)=C(NC(c1ccc(Cl)cc1)C1CC1)c1cn(C)nc1C(F)F (stereo not drawn) [Compound 1363]
10 | 3.33^[a] | CCOC(=O)C(C#N)=C(NC(C)c1ccccn1)c1ccnc(-c2ccccc2)c1Cl (racemic) [Compound 1398]
11 | 3.96^[a] | COC(=O)C(C#N)=C(Nc1ccccc1OC(C)C)c1sc(C)nc1C(F)(F)F [Compound 514]
12 | 3.57^[a] | CCNC(=O)C(C#N)=C(NC(C)C(C)C)c1ccnc(Cl)c1Cl (stereo not drawn) [Compound 1200]
13 | 2.34^[a] | COC(=O)C(C#N)=C(NC(C)CC(F)(F)F)c1cccnc1Cl (stereo not drawn) [Compound 757]
14 | 2.07^[a] | CCOC(=O)C(C#N)=C(NC(C)C(=O)NC)c1sc(C)nc1C(F)(F)F (stereo not drawn) [Compound 642]
15 | 2.05^[a] | CCOC(=O)C(C#N)=C(NC(C)C(=O)NC)c1ccsc1Br (stereo not drawn) [Compound 637]
16 | 4.23^[a] | COC(=O)C(C#N)=C(NC(C)c1ccc(C(C)(C)C)cc1)c1cccnc1Cl (stereo not drawn) [Compound 406]
17 | 3.37^[a] | CCOC(=O)C(C#N)=C(NC(C)(C)C(=O)OC)c1sccc1C(F)(F)F [Compound 694]
18 | 3.2^[a] | CCOC(=O)C(C#N)=C(NC(C)c1cccc(Cl)n1)c1cccnc1Cl (stereo not drawn) [Compound 1439]
19 | 3.64^[a] | CCOC(=O)C(C#N)=C(NC(C)CC)c1cnc(Cl)cc1Cl (racemic) [Compound 838]
20 | 3.8^[a] | CCOC(=O)/C(C#N)=C(\NC(C)Cc1c[nH]c2ccccc12)c1sccc1Cl (stereo not drawn) [Compound 151]
21 | 4.46^[a] | CCOC(=O)C(C#N)=C(Nc1ccccc1OC(C)C)c1ccsc1Br [Compound 523]

Row | Structure (SMILES) | Log P
22 | CCOC(=O)C(C#N)=C(NC(C)C(C)C)c1cccnc1C(F)F (stereo not drawn) [Compound 981] | 3.15^[a]
23 | CCOC(=O)C(C#N)=C(NC(C)c1ccccn1)c1ccnn1C(F)F (stereo not drawn) [Compound 1646] | 2.55^[a]
24 | CCOC(=O)C(C#N)=C(NC(C)CC)c1sccc1Br (stereo not drawn) [Compound 827] | 3.76^[a]
25 | CCOC(=O)C(C#N)=C(NC1(CC)CC1)c1cccnc1Cl [Compound 1641] | 3.13^[a]
26 | CC(NC(=C(C#N)C(=O)NCC(F)(F)F)c1cccnc1Cl)c1nccs1 (stereo not drawn) [Compound 324] | 2.44^[a]
27 | CCOC1CCCC1NC(=C(C#N)C(=O)OC)c1cccnc1Cl (stereo not drawn) [Compound 1059] | 2.93^[a]
28 | CCOC(=O)C(C#N)=C(NC(C)(C)C=C(Cl)Cl)c1cccnc1Cl [Compound 1271] | 3.55^[a]
29 | CCOC(=O)C(C#N)=C(NC(C)C(C)C)c1ccncc1F (stereo not drawn) [Compound 997] | 3.08^[a]
30 | CCOC(=O)C(C#N)=C(NC(C)c1csc(Cl)n1)c1cccnc1Cl (stereo not drawn) [Compound 322] | 3.3^[a]
31 | CCOC(=O)C(C#N)=C(NC(C)c1nccs1)c1ccnc(Cl)c1Br (racemic) [Compound 1406] | 2.96^[a]
32 | C=CCNC(=O)C(C#N)=C(NC(C)C(C)C)c1cn(C)nc1C(F)F (stereo not drawn) [Compound 1008] | 2.68^[a]

Same assay, conditions: pH 7.5

Row | Structure (SMILES) | Log P
33 | CC(NC(=C(C#N)C(=O)OC1CCC1)c1cccnc1Cl)c1nccs1 (racemic) [Compound 268] | 2.88
